This is an account of results in patent US11752188B2, “Compositions and methods for nutritional supplements” (DailyColors Health Inc., priority 2020, dated 2023).

One assay has as its target T1, recombinant human IDO2 (Homo sapiens, UniProt Q6ZQW0).
T1 construct: purchased 71194
T1 sequence (Q6ZQW0 1-407): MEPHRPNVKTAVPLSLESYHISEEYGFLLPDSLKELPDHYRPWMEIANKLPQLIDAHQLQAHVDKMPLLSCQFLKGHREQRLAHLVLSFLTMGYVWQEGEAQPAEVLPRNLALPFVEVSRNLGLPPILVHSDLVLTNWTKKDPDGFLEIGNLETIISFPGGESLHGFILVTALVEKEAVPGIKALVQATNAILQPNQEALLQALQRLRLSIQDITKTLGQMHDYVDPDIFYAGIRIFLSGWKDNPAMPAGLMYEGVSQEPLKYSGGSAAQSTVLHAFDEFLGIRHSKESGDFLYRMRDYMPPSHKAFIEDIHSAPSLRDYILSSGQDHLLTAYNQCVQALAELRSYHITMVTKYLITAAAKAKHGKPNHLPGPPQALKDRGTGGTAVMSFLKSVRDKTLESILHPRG
Briefly: IDO2 UV absorbance assay (L-tryptophan, 321 nm). It is filed as biochemical. To be noted: for Absorbance (net) Repeat 1 / Absorbance (net) Repeat 2: Table 46.

Another assay deals with T2, human recombinant ARG1 (Homo sapiens, UniProt P05089).
T2 sequence (P05089 1-322): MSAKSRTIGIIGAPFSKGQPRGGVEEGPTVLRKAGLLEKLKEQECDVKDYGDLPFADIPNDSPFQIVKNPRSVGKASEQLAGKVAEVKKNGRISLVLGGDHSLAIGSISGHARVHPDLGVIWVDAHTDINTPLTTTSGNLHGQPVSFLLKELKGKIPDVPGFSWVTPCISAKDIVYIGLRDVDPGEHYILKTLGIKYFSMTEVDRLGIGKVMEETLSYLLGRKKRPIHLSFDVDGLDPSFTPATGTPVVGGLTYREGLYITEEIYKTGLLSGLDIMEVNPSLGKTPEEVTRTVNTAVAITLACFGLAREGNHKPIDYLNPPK
Nature of the assay: ARG1 enzymatic inhibition assay (thioarginine substrate, UV absorbance 412 nm). It is filed as biochemical.

A further assay has as its target T3, human recombinant ARG2 (Homo sapiens, UniProt P78540).
T3 sequence (P78540 23-354): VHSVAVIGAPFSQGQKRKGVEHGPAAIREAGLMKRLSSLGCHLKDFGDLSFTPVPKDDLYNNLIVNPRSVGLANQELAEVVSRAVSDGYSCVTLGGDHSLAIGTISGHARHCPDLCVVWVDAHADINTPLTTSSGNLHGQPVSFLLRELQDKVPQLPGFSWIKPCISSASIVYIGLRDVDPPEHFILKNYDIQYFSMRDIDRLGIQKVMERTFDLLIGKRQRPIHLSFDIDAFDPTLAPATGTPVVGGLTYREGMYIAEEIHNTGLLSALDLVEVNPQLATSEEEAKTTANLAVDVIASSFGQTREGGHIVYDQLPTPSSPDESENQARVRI
Briefly: ARG2 enzymatic inhibition assay (thioarginine substrate, UV absorbance 412 nm). It is filed as biochemical.

The target of assay [1] is T4, recombinant human CD47 (hCD47) with human SIRP-α (Homo sapiens, UniProt Q08722).
T4 construct: purchased 71177 (hCD47, Fc fusion); 71138 (hSIRP-α, Biotin-labeled)
T4 sequence (Q08722 19-141 limits assumed): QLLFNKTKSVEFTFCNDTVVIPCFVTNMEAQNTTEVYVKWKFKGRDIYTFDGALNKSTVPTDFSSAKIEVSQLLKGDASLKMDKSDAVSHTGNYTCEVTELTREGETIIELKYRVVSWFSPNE
Briefly: CD47/SIRP-α in vitro binding assay. Here is the method:
Assay Conditions: CD47 was coated using 50 μL at 2 ng/μL at 4° C. overnight. After wash and block steps the test compounds were added to CD47-coated plate followed by addition of SIRP-α-biotin. Reaction was incubated for 2 h at room temperature. Binding was detected using HRP-conjugated Streptavidin.

Another assay concerns the target T5, SIRT1 (Homo sapiens, UniProt Q96EB6).
T5 construct: purchased 50012
T5 sequence (Q96EB6 1-747): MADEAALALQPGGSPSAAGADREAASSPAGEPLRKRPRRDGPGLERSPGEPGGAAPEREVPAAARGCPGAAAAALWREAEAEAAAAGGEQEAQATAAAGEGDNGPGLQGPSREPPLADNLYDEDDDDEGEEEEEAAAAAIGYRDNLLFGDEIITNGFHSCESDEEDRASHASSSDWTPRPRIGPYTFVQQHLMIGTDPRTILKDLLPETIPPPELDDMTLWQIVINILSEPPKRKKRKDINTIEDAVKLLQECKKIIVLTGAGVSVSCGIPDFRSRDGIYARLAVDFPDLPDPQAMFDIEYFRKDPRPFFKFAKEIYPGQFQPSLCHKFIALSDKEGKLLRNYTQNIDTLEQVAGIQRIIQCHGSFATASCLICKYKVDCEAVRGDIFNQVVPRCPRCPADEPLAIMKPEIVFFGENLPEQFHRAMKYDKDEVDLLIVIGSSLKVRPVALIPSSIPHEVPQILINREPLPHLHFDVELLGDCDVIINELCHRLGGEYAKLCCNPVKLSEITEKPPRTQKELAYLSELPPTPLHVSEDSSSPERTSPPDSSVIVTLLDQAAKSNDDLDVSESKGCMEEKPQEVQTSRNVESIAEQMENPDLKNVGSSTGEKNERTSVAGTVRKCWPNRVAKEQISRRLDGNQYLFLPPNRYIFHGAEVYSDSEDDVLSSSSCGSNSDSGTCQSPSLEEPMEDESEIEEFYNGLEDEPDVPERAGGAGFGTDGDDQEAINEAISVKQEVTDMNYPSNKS
Nature of the assay: SIRT1 fluorogenic HDAC substrate activity assay. It is filed as biochemical.

Where [2] appears, read: read-out: Activity (%) Repeat 1.
Setting [3] is: read-out: Activity (%) Repeat 2.
Setting [4] is: test concentration 0.001 μM, read-out: Activity (%) Rep. 1.
Setting [5] is: test concentration 0.01 μM, read-out: Activity (%) Rep. 1.
[6] abbreviates: test concentration 0.1 μM, read-out: Activity (%) Rep. 1.

Where two headings read alike, the source gives them in different places.

Protocol for SIRT1: Assay Conditions: The sample was dissolved in 70% EtOH. The serial dilution of the compound was first performed in 70% EtOH with the highest concentration at 1%.
The enzymatic reactions for the SIRT1 enzyme were conducted in duplicate at 37° C. for 30 minutes in a 50 μl mixture containing SIRT assay buffer, 5 μg BSA, an HDAC substrate (see 2.3.1), a SIRT enzyme, and a test compound. After enzymatic reactions, 50 μl of 2× SIRT Developer was added to each well for the SIRT enzymes and the plate was incubated at room temperature for an additional 15 minutes. Fluorescence intensity was measured at an excitation of 360 nm and an emission of 460 nm using a Tecan Infinite M1000 microplate reader.
Data Analysis: SIRT activity assays were performed in duplicates at each concentration. […] In the absence of the compound, the fluorescent intensity (Ft) in each data set was defined as 100% activity. In the absence of SIRT, the fluorescent intensity (Fb) in each data set was defined as 0% activity. The percent activity in the presence of each compound was calculated according to the following equation: % activity=(F−Fb)/(Ft−Fb), where F=the fluorescent intensity in the presence of the compound.
Protocol for human recombinant ARG1: (§1) Assay conditions: The assay was performed using human recombinant ARG1 or ARG2 as enzymes and thioarginine as substrate. The UV absorbance at 412 nm was correlated with the amount of reaction product of ARG1/ARG2. […] 5 μl of 20× sample solutions were added to 90 μl of substrate, and reactions were started by the addition of 5 μl of 20× ARG1/ARG2 solutions. For the negative control (Blank), 5 μl of the assay buffer was added instead of the ARG1/ARG2. […] All reactions were conducted at room temperature and incubated for 30 minutes, ensuring that all wells, containing either samples or controls, contained 0.7% (v/v) EtOH final concentration to discard any solvent effect. UV absorbance readings were done at times 0 and 30 minutes to get net values. Absorbance was measured using a Tecan Infinite M1000 microplate reader.
(§2) Data Analysis: Experiment was performed in duplicate at each concentration. The data were analyzed using the software GraphPad Prism. In the absence of the compound, the net absorbance (At) in each data set was defined as 100% activity. In the absence of ARG1/ARG2, the net absorbance (Ab) in each data set was defined as 0% activity. The percent activity in the presence of each compound was calculated according to the following equation: % activity=[(A−Ab)/(At−Ab)]×100, where A=the absorbance in the presence of the compound.
Protocol for human recombinant ARG2: as §1, §2

For the molecule `NS(=O)(=O)NCCNc1nonc1C(=NO)Nc1ccc(F)c(Br)c1` [INCB024360], on recombinant human IDO2, the inhibition at 0.01 µM worked out at 0%, the inhibition at 0.1 µM stood at 20% and the inhibition at 1 µM was 60%. Further, on recombinant human IDO2 (0.01 μM), the “Absorbance (net) Repeat 1” value is recorded as 0.17 and the “Absorbance (net) Repeat 2” value came out at 0.17. Moreover, at recombinant human IDO2 (0.1 μM), the “Absorbance (net) Repeat 1” value is 0.14 and the “Absorbance (net) Repeat 2” value was determined as 0.15. For the same molecule, at recombinant human IDO2 (1 μM), the “Absorbance (net) Repeat 1” value is on record as 0.10 and the “Absorbance (net) Repeat 2” value is 0.11. Moreover, at recombinant human IDO2 (setting [2]), the activity at 0.01 µM is 105%, the activity at 0.1 µM was 75% and the activity at 1 µM came out at 35%. Further, on recombinant human IDO2 (setting [3]), the activity at 0.01 µM amounted to 105%, the activity at 0.1 µM came out at 85% and the activity at 1 µM stood at 45%.
Regarding `N=C(NO)NCC[C@H](N)C(=O)O` [nor-NOHA], the “Net absorbance Rep. 1” value is 0.74 on human recombinant ARG1 (test concentration 0.001 μM); 0.59 on human recombinant ARG1 (test concentration 0.01 μM); 0.23 at human recombinant ARG1 (test concentration 0.1 μM); 0.78 at human recombinant ARG2 (test concentration 0.001 μM); 0.56 on human recombinant ARG2 (test concentration 0.01 μM); 0.19 at human recombinant ARG2 (test concentration 0.1 μM). Also, the “Net absorbance Rep. 2” value on human recombinant ARG1 (test concentration 0.001 μM) was determined as 0.77; on human recombinant ARG1 (test concentration 0.01 μM), 0.59; on human recombinant ARG1 (test concentration 0.1 μM), 0.24; at human recombinant ARG2 (test concentration 0.001 μM), 0.82; on human recombinant ARG2 (test concentration 0.01 μM) it was 0.60; on human recombinant ARG2 (test concentration 0.1 μM), 0.19. The inhibition at 0.001 µM was 0% on human recombinant ARG1 (test concentration 0.001 μM, read-out: ARG-1 Inhibition (%)) and 17% at human recombinant ARG2 (test concentration 0.001 μM, read-out: ARG-2 Inhibition (%)). Besides, the activity at 0.001 µM on human recombinant ARG1 (setting [4]) turned out to be 99%; at human recombinant ARG1 (test concentration 0.001 μM, read-out: Activity (%) Rep.2), 102%; on human recombinant ARG2 (setting [4]) it was 81%; at human recombinant ARG2 (test concentration 0.001 μM, read-out: Activity (%) Rep. 2), 84%. Also, the inhibition at 0.01 µM was found to be 22% on human recombinant ARG1 (test concentration 0.01 μM, read-out: ARG-1 Inhibition (%)) and 41% at human recombinant ARG2 (test concentration 0.01 μM, read-out: ARG-2 Inhibition (%)). For the same molecule, the activity at 0.01 µM came to 79% on human recombinant ARG1 (setting [5]); 78% at human recombinant ARG1 (test concentration 0.01 μM, read-out: Activity (%) Rep.2); 57% at human recombinant ARG2 (setting [5]); 62% on human recombinant ARG2 (test concentration 0.01 μM, read-out: Activity (%) Rep. 2). Besides, the inhibition at 0.1 µM on human recombinant ARG1 (test concentration 0.1 μM, read-out: ARG-1 Inhibition (%)) is 69%; on human recombinant ARG2 (test concentration 0.1 μM, read-out: ARG-2 Inhibition (%)) it was 81%. Also, the activity at 0.1 µM on human recombinant ARG1 (setting [6]) amounted to 31%; at human recombinant ARG1 (test concentration 0.1 μM, read-out: Activity (%) Rep.2), 31%; on human recombinant ARG2 (setting [6]), 19%; on human recombinant ARG2 (test concentration 0.1 μM, read-out: Activity (%) Rep. 2), 19%.
For SIRP-α, in assay [1] (0.05 μM), the “Activity (%) Repeat 1” value stood at 93%, the “Activity (%) Repeat 2” value worked out at 97%, the Inhibition (%) was 5% and the “Luminescence Repeat 1” value stood at 35347. The “Luminescence Repeat 2” value in assay [1] (0.05 μM) is listed as 36581. In assay [1] (0.5 μM), the “Activity (%) Repeat 1” value is given as 52%, the “Activity (%) Repeat 2” value is 51%, the Inhibition (%) was determined as 49% and the “Luminescence Repeat 1” value was 19746. The “Luminescence Repeat 2” value in assay [1] (0.5 μM) was 19259. In assay [1] (5 μM), the “Activity (%) Repeat 1” value came out at 14%, the “Activity (%) Repeat 2” value was found to be 18%, the Inhibition (%) was 84% and the “Luminescence Repeat 1” value came out at 5310. In assay [1] (5 μM), the “Luminescence Repeat 2” value stood at 6891.
For the molecule `Cc1ccc(C(=O)Nc2ccc(S(=O)(=O)O)c3cc(S(=O)(=O)O)cc(S(=O)(=O)O)c23)cc1NC(=O)c1cccc(NC(=O)Nc2cccc(C(=O)Nc3cc(C(=O)Nc4ccc(S(=O)(=O)O)c5cc(S(=O)(=O)O)cc(S(=O)(=O)O)c45)ccc3C)c2)c1` [Suramin], at SIRT1, the inhibition at 0.1 µM was found to be 14% and the inhibition at 1 µM is 74%. In addition, at SIRT1 (read-out: % Activity Repeat 1), the activity at 0.1 µM came to 85% and the activity at 1 µM worked out at 26%. Further, on SIRT1 (read-out: % Activity Repeat 2), the activity at 0.1 µM came out at 86% and the activity at 1 µM came to 26%. In addition, at SIRT1 (test concentration 0.01 μM), the “SIRT1 Activity (Fluorescence count) Repeat 1” value came to 2415, the “SIRT1 Activity (Fluorescence count) Repeat 2” value was determined as 2415 and at 0.01 µM the inhibition was 0%. Also, the activity at 0.01 µM on SIRT1 (test concentration 0.01 μM, read-out: % Activity Repeat 1) amounted to 100%. Also, at SIRT1 (test concentration 0.01 μM, read-out: % Activity Repeat 2), the activity at 0.01 µM was found to be 100%. Further, on SIRT1 (test concentration 0.1 μM), the “SIRT1 Activity (Fluorescence count) Repeat 1” value was determined as 2074 and the “SIRT1 Activity (Fluorescence count) Repeat 2” value was found to be 2082. Moreover, on SIRT1 (test concentration 1 μM), the “SIRT1 Activity (Fluorescence count) Repeat 1” value is reported as 710 and the “SIRT1 Activity (Fluorescence count) Repeat 2” value was determined as 702.

What is called inhibition is the share of the control response that was lost under treatment.
